The source of these data is article PMC12693701, “Glucosinolate-Derived Metabolites from Barbarea vulgaris (Brassicaceae): Evaluation of Antimicrobial, Antioxidant, and Anti-Inflammatory Potentials” (Molecules, 2025).

Values after ≈ are worked out from the molar mass of the structure shown. Where two headings read alike, the source gives them in different places.

Experiment [1] deals with B. animalis subsp. lactis. In words: Microdilution MIC/MMC with resazurin. It counts as cell-based, Bifidobacterium animalis subsp. lactis. On the procedure:
The antimicrobial activity was evaluated against 15 microorganisms. This included 11 bacterial strains: four standard strains (Staphylococcus aureus ATCC 25923, Bacillus subtilis ATCC 6633, Bacillus pumilus NCTC 8241, and Escherichia coli ATCC 25922) and six clinical or environmental isolates (Staphylococcus aureus, Escherichia coli, Bacillus cereus, Proteus mirabilis, Salmonella enterica, and Klebsiella pneumoniae). One probiotic strain, Bifidobacterium animalis subsp. lactis was tested. In addition, four fungal strains, Candida albicans ATCC 10231, Trichoderma viride ATCC 13233, Aspergillus flavus ATCC 9170, and Fusarium solani ATCC 11712 were tested. The bacterial strains were kept in glycerol stock at −80 °C and the fungal strains in paraffin oil stock at 4 °C.
Bacterial and yeast suspensions were prepared using the direct colony method, as previously described by Andrews. The turbidity of the initial suspensions was adjusted to match the 0.5 McFarland standard using a densitometer (Biosan, Riga, Latvia), corresponding to approximately 10^8 colony-forming units (CFU)/mL for bacterial cells and 10^6 CFU/mL for yeast cells. Subsequently, 1:100 dilutions of the initial suspensions were prepared in sterile 0.85% saline. Fungal spore suspensions were obtained by gently harvesting spores from agar slopes containing mature mycelial growth. The collected spore suspensions were then diluted 1:1000 in sterile 0.85% saline prior to use.
Antimicrobial activity was evaluated by determining the minimum inhibitory concentration (MIC) and minimum microbicidal concentration (MMC) using the microdilution plate method with resazurin as an indicator [28]. In the 96-well plates, 100 μL of Mueller–Hinton broth (Torlak, Belgrade, Serbia) for bacterial testing and Sabouraud broth (Torlak, Belgrade, Serbia) for fungal testing were dispensed into each well. The compounds under investigation were initially dissolved in a 10% dimethyl sulfoxide (DMSO) solution, followed by dilution in sterile distilled water, resulting in a working compound solution containing 1% DMSO. A 100 μL aliquot of the stock solution of the tested compound was added to the first row, and twofold serial dilutions were then carried out using a multichannel pipette. The resulting concentration range was from 5 to 0.039 mg/mL. The inoculated microtiter plates were incubated at 37 °C for 24 h for bacteria, at 28 °C for 48 h for yeasts, and at 28 °C for 72 h for molds.
Each test also included growth control and sterility control. All tests were conducted in duplicate. MIC was defined as the lowest concentration of tested compounds that prevented resazurin color change from blue to pink. For molds, MIC values of the tested compound were determined as the lowest concentration that inhibited visible mycelia growth. MMC was determined by inoculation of the nutrient agar medium by plating […] of samples from wells, where no indicator color change was recorded. At the end of the incubation period, the lowest concentration with no growth (no colony) was defined as MMC.
Doxycycline, ampicillin and amphotericin B (- Sigma-Aldrich, St. Louis, MO, USA) and ketoconazole (Hemofarm A.D., Vršac, Serbia) were dissolved in a nutrient liquid medium. Doxycycline is a broad-spectrum antibiotic effective against both aerobic and anaerobic Gram-positive and Gram-negative bacteria. Ampicillin, a beta-lactam antibiotic, primarily targets Gram-positive bacteria but also some Gram-negative strains. Amphotericin B is an antifungal drug often used for serious systemic fungal infections and is one of the effective treatments for fungal infections caused by Aspergillus sp. Ketoconazole is an antifungal agent used to inhibit the growth of Candida species.
(In general: Broth dilution looks for growth in wells or tubes with falling amounts of substance.)

Experiment [2] in a line: ABTS radical scavenging assay. The following applies: mean ± SD. On the procedure:
The ABTS radical cation solution was prepared following the previously described protocol. Different concentrations of the analyzed samples were prepared in DMSO. The test samples were prepared following the specified procedure: 20 µL of sample was combined with 980 µL of methanol, followed by the addition of 1000 µL of ABTS solution. Absorbance was measured at 734 nm. All measurements were performed in triplicate.

Experiment [3] deals with T1, Type I-B soybean lipoxygenase (Glycine max, UniProt P08170).
T1 sequence (P08170 1-839): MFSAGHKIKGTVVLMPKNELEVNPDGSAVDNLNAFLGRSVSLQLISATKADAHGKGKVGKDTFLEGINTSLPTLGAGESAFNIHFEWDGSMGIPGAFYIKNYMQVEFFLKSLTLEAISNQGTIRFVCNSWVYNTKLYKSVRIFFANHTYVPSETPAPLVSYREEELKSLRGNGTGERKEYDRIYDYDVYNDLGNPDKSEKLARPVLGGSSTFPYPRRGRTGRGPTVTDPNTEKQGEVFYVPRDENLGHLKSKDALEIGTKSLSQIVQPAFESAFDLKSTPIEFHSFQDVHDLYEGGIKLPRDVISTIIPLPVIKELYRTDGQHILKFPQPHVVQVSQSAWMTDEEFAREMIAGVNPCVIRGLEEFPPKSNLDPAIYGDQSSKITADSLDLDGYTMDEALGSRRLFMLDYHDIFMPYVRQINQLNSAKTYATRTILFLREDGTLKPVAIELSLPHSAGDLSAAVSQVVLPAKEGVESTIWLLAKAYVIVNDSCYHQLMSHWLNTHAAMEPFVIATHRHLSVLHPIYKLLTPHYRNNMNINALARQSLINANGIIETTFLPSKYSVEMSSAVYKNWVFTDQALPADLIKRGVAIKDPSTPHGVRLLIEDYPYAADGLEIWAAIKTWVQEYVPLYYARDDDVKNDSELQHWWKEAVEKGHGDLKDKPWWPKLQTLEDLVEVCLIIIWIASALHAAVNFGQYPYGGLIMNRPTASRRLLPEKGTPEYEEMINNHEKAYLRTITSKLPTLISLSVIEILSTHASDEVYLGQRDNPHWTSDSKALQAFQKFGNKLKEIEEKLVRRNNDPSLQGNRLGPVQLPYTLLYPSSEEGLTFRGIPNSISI
In words: LOX inhibition assay. The format is biochemical. The following applies: for inhibition at 100 µM: read-out: Percentage of LOX Inhibition. How it is done: Type I-B soybean lipoxygenase is a commonly used enzyme for studying the anti-inflammatory properties of various compounds [19]. The lipoxygenase (LOX) inhibition assay measures the enzyme’s ability to convert sodium linoleate to 13-hydroperoxylinoleic acid. The inhibition of the enzyme by the investigated compounds was determined by measuring the absorbance at 234 nm for each prepared sample. Specifically, the test compound, Tris buffer, an enzyme solution (5 × 10^3 units/mL in saline), and sodium linoleate (3 mM in Tris buffer, pH 9), were added to a UV cuvette, and the absorbance was recorded. […] All measurements were performed in triplicate.

The mark [4] stands for this setting: B. animalis subsp. lactis, compounds 1–8.
Setting [5] is: Bifidobacterium animalis, B. animalis subsp. lactis, compounds 1–8, read-out: MIC.

As a reminder, the MIC is the lowest concentration found to suppress growth. In general, inhibition refers to how much of the control response was suppressed. Consider `O=C1NCC(c2ccccc2)O1` (centres unmarked) [Compound 7, 5-Phenyl-1,3-oxazolidin-2-one], for which, in experiment [1] (setting [4]), the MMC amounted to 5 mg/mL. In addition, the MIC in experiment [1] (setting [5]) is 2500 µg/mL (≈ 15.3 mM). The “ABTS Scavenging Ability” value in experiment [2] (25 µM) came out at 1.3 ± 0.1%; in experiment [2] (50 µM), 2.7 ± 1.0%; in experiment [2] (100 µM), 3.9 ± 0.4%. Further, the inhibition at 100 µM in experiment [3] (100 µM, mean ± SD) was determined as 18.3 ± 0.3%.
Take `Oc1ccc(CCN=C=S)cc1` [Compound 8, 2-(4-hydroxyphenyl)ethyl isothiocyanate]: the MIC in experiment [1] (setting [4]) and in experiment [1] (Bifidobacterium animalis) was less than 39 µg/mL each time. The MMC in experiment [1] (setting [4]) is recorded as 0.625 mg/mL. Moreover, the “ABTS Scavenging Ability” value is 2.9 ± 1.3% in experiment [2] (25 µM), 6.8 ± 1.1% in experiment [2] (50 µM) and 11.9 ± 0.8% in experiment [2] (100 µM). Moreover, the inhibition at 100 µM in experiment [3] was determined as 21.2 ± 0.3%.
Broadly, the IC50 is the midpoint of a concentration-inhibition curve. Low values mean inhibition by little substance, high ones a need for much substance. `CSC(=S)NCCc1ccc(O)cc1` [Compound 2, methyl-4-hydroxyphenylethyl dithiocarbamate] registered an MMC in experiment [1] (setting [4]) of 0.625 mg/mL. Moreover, in experiment [1] (setting [5]), the MIC amounted to 78 µg/mL (≈ 0.343 mM). The “ABTS Scavenging Ability” value in experiment [2] (25 µM) came out at 7.6 ± 1.0%; in experiment [2] (50 µM) it was 13.4± 0.9%; in experiment [2] (100 µM), 13.4 ± 0.8%. Also, the inhibition at 100 µM in experiment [3] (100 µM, mean ± SD) amounted to 55.5 ± 0.1%. The compound further returned an IC50 in experiment [3] (mean ± SD) of 97.4 ± 1.3 µM.
In experiment [1] (setting [4]), `O=C(O)C1CSC(=S)N1` (centres unmarked) [Compound 3, 2-Thioxothiazolidine-4-carboxylic Acid] returned an MMC of 2.5 mg/mL. In experiment [1] (setting [5]), the MIC turned out to be 625 µg/mL (≈ 3.83 mM). For the same compound, the “ABTS Scavenging Ability” value came out at 1.2 ± 0.3% in experiment [2] (25 µM), 1.9 ± 1.2% in experiment [2] (50 µM) and 2.6 ± 0.7% in experiment [2] (100 µM). Besides, in experiment [3] (100 µM, mean ± SD), the inhibition at 100 µM turned out to be 23.8 ± 0.8%.
Consider `S=C1NCC(c2ccccc2)O1` (racemic) [Compound 4, rac-5-Phenyl-1,3-oxazolidine-2-thione], for which the MMC in experiment [1] (setting [4]) was determined as 5 mg/mL. For the same compound, the MIC in experiment [1] (setting [5]) amounted to 1250 µg/mL (≈ 6.97 mM). Also, the “ABTS Scavenging Ability” value in experiment [2] (25 µM) is on record as 0.9 ± 0.1%; in experiment [2] (50 µM) it was 1.6 ± 0.9%; in experiment [2] (100 µM), 2.5 ± 0.3%. The inhibition at 100 µM in experiment [3] (100 µM, mean ± SD) was 90.5 ± 0.1%. The half-maximal inhibitory concentration (IC50) in experiment [3] (mean ± SD) amounted to 61.6 ± 0.6 µM.
For the compound `CSC(=S)NCCc1ccccc1` [Compound 1, Methyl phenethylcarbamodithioate], the MMC in experiment [1] (setting [4]) was 2.5 mg/mL. The minimum inhibitory concentration (MIC) in experiment [1] (setting [5]) amounted to 1250 µg/mL (≈ 5.91 mM). For the same compound, the “ABTS Scavenging Ability” value in experiment [2] (25 µM) came to 1.7 ± 1.1%; in experiment [2] (50 µM) it was 2.2 ± 1.2%; in experiment [2] (100 µM), 2.6 ± 0.8%. In addition, the inhibition at 100 µM in experiment [3] (100 µM, mean ± SD) was found to be 47.5 ± 1.5%. The IC50 in experiment [3] (mean ± SD) was determined as 125.5 ± 0.4 µM.
In experiment [1] (setting [4]), `S=C1NC[C@H](c2ccccc2)O1` [Compound 5, (S)-5-phenyl-1,3-oxazolidine-2-thione] showed an MMC of 5 mg/mL. Further, in experiment [1] (setting [5]), the minimal inhibitory concentration (MIC) came out at 1250 µg/mL (≈ 6.97 mM). The “ABTS Scavenging Ability” value is given as 6.6 ± 0.2% in experiment [2] (25 µM), 12.3 ± 0.8% in experiment [2] (50 µM) and 19.1 ± 0.6% in experiment [2] (100 µM). Also, the inhibition at 100 µM in experiment [3] (100 µM, mean ± SD) turned out to be 40 ± 0.5%. Further, the IC50 in experiment [3] (mean ± SD) came out at 123 ± 1.5 µM.
Turning to `O=C1NCC(c2ccccc2)S1` (centres unmarked) [Compound 6, 5-phenyl-1,3-thiazolidin-2-one], the MMC in experiment [1] (setting [4]) is more than 5 mg/mL. Moreover, the MIC in experiment [1] (setting [5]) was more than 5000 µg/mL. The results for the “ABTS Scavenging Ability” value in experiment [2] (25 µM), in experiment [2] (50 µM) and in experiment [2] (100 µM) were 2.6 ± 0.7%, 3.9 ± 1.2% and 5.1 ± 0.9%, respectively. In addition, in experiment [3] (100 µM, mean ± SD), the inhibition at 100 µM was 34.6 ± 0.4%.
